How the values were obtained:
Ecdysone receptor [1] = molecular target: T1, Ecdysone receptor (Chironomus tentans, UniProt O45117+P49882); test: Binding affinity to Chironomus tentans EcR; format: protein-complex assay
T1 sequence (P49882 whole entry): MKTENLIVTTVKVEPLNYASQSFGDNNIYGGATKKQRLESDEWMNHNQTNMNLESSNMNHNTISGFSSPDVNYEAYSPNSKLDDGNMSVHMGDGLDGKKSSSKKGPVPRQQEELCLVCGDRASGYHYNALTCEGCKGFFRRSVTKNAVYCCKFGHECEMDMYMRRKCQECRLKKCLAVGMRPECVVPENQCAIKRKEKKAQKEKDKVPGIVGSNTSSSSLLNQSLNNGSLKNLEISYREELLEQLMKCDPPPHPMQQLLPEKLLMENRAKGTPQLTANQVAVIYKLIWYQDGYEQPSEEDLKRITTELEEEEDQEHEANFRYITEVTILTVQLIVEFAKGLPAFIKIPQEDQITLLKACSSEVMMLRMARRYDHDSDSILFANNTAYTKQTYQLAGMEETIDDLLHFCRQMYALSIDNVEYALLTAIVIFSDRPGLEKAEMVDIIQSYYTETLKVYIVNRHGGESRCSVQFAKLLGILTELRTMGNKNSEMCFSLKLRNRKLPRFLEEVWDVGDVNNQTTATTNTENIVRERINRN
T1 sequence (O45117 whole entry): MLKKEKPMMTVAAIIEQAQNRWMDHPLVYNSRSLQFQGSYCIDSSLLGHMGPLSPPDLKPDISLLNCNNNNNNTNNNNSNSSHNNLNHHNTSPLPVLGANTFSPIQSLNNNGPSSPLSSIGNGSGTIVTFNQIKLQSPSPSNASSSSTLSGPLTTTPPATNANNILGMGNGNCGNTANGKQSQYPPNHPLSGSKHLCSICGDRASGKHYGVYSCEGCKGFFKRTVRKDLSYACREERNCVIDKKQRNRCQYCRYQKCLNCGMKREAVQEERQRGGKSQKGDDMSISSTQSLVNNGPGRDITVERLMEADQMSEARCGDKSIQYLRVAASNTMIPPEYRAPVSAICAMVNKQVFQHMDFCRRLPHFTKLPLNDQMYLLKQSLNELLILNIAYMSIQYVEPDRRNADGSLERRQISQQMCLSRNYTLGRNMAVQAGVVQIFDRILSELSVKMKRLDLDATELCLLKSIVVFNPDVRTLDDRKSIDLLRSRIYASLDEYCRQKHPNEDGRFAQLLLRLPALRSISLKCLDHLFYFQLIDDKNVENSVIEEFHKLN

Ecdysone receptor [2] = molecular target: T2, Ecdysone receptor (Aedes aegypti, UniProt P49880+Q9GSG8); test: Binding affinity to Aedes aegypti EcR; format: protein-complex assay
T2 sequence (P49880 whole entry): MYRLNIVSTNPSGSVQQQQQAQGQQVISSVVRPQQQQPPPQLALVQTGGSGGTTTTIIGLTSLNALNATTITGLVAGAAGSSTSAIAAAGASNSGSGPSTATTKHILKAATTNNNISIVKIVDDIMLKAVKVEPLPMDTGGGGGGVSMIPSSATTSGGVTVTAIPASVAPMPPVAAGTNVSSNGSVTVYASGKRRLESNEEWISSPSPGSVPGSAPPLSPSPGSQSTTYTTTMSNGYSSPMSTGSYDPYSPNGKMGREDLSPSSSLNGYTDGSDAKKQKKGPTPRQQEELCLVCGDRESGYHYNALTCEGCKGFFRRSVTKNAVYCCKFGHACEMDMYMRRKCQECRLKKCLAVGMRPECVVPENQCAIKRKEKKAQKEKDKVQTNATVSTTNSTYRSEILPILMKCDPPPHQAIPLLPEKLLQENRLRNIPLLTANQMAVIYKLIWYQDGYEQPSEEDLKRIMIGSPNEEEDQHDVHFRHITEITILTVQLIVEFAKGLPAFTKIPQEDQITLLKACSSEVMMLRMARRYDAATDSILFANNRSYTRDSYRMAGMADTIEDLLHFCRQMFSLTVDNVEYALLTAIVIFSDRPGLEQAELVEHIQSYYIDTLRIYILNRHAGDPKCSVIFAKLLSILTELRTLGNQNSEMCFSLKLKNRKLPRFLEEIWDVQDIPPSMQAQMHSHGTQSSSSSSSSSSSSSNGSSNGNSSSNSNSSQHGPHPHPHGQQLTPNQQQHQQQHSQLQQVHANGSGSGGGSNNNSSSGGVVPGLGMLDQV
T2 sequence (Q9GSG8 whole entry): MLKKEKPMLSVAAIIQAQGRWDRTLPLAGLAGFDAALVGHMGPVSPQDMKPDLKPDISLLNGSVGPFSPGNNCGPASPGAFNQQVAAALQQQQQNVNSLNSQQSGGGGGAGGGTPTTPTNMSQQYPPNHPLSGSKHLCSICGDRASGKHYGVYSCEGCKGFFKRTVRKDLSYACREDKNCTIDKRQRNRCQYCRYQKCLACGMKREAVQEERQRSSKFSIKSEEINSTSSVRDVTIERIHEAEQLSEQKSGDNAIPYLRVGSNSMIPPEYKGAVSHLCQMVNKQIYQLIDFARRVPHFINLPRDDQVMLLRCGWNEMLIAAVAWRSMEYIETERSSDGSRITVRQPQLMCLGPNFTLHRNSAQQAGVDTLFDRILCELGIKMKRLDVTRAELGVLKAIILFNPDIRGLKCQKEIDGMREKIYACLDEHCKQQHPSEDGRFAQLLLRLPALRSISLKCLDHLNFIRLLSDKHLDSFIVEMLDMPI

## CCc1ccc(C(=O)NN(C(=O)c2cc(C)cc(C)c2)C(C)(C)C)cc1 [TEBUFENOZIDE]
Ecdysone receptor [1]
  Ki: 0.01 µM
Ecdysone receptor [2]
  Ki: 0.0251 µM
